This note sets out measurements from patent publication US11560358B2, “Resveratrol-piperazine co-crystals” (LETAVIS AB, priority 2018, dated 2023).

Broadly, the solubility is the concentration that dissolves in the medium under given conditions.

A short description of this series: physchem. As to the method:
In situ dissolution experiments were performed with a μDISS Profiler apparatus (pION Inc., MA, USA). The system consists of an integrated diode array spectrophotometer connected to a fiber optic UV probe located directly in the reaction vessel (20 ml scintillation vial) and measures the concentration as a function of time, without filtering the solution. Measurement of the dissolution kinetics was carried out at 220 nm and 270 nm, which are optimal for the UV detection of resveratrol and […], respectively. The concentrations of the compounds in the dissolution media (water, buffer pH=4, pH=6) were calculated by means of a standard curve.
The calibration curve was obtained in a mixture of ethanol and water at 8/2 (vol/vol). Stock solutions of resveratrol and resveratrol-piperazine co-crystal, Form 1, respectively, were prepared at 10 mg/ml. The calibration was performed in a 20 ml volume.
The dissolution was performed in 25 mM phosphate buffer (Na2HPO4/KH2PO4) at pH 6, at a concentration of 1 mg/ml resveratrol and resveratrol-piperazine co-crystal, Form 1, respectively. An amount of 20 mg of each compound was dispensed in 20 ml volume of buffer. The process was monitored for 90 minutes.
The calibration was performed in a mixture of ethanol and sodium acetate buffer pH 4.0 at 8/2 (vol/vol) and final concentration of 25 mM sodium acetate. Stock solutions of resveratrol and resveratrol-piperazine co-crystal, Form 1, respectively, were prepared at 10 mg/ml in the solvent mixture. The calibration was performed in 20 ml volume.
The dissolution was performed in 25 mM sodium acetate buffer at pH 4.0, at a concentration of 1 mg/ml resveratrol and resveratrol-piperazine co-crystal, Form 1 (RP1), respectively. An amount of 20 mg compound was dispensed in 20 ml volume of buffer. The process was monitored for 90 minutes.

≈ marks a conversion by molar mass, not a printed value.

Regarding `Oc1ccc(C=Cc2cc(O)cc(O)c2)cc1` [resveratrol], the solubility at 90 min (aqueous buffer, thermodynamic from solid) is 30 µg/mL (≈ 131 µM).
With `C1CNCCN1.Oc1ccc(C=Cc2cc(O)cc(O)c2)cc1` [resveratrol-piperazine co-crystal, Form 1], the aqueous solubility is 65-100 micrograms/ml. In addition, the “time maintained in solution, pH 4 buffer versus pH 6 buffer” value (FIG. 14 and FIG. 13) is “longer than in the case of the pH 6 buffer”. Also, the “solubility compared to that of resveratrol” value (pH 4) is “three times higher”.
